Measurements published in patent US8546593B2, “Methods and compositions for novel liquid crystal delivery systems” (Copperhead Chemical Company, Inc., priority 2009, dated 2013).
Values after ≈ are worked out from the molar mass of the structure shown.

Test system: Staphylococcus aureus
Assay: Minimum inhibitory concentration against Staphylococcus aureus
Assay type: cell-based
Details: read-out: minimum inhibitory concentration (MIC)

Question: How did the MIC turn out when `CCCCCCCCCCCC(=O)OCC(O)CO` (stereo not shown) [glycerol monolaurate] was run?
Answer: 55 µg/mL (≈ 200 µM)
